From patent US11007216B2, “Combination therapy to achieve enhanced antimicrobial activity” (International Business Machines Corporation, priority 2019, dated 2021)

Tested on: A. baumannii
Assay: minimum inhibitory concentration (MIC) against A. baumannii
Assay type: cell-based, Acinetobacter baumannii

Row | Compound | MIC [µg/mL]
1 | Colistin | 1
2 | CC(=O)OC[C@H]1O[C@@H]([S-])[C@H](OC(C)=O)[C@@H](OC(C)=O)[C@@H]1OC(C)=O.CCP(CC)CC.[Au+] [Auranofin, (2,3,4,6-Tetra-O-acetyl-1-thio-β-D-glucopyranosato-κS^1)(triethylphosphoranylidene)gold] | 15.6
